These results are taken from PubChem BioAssay AID1902 (Broad Institute, 2009).

By EC50 is commonly meant the concentration at which the effect is half-maximal.

This experiment has as its target S. pyogenes SKKanGAS, kanamycin survival, BacTiterGlo, 6 h. Kind of experiment: SKKanGAS survival reduction under kanamycin, dose response, streptokinase promoter inhibitor project, SKKanGAS strain, luminescence, dose confirmation (AID 1902).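 Also: lower survival reflects blocked streptokinase promoter driving kanamycin resistance gene.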

Calls of active or inactive are those of the source.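 The calls were made as follows: active = EC50 no more than a set limit of log units above the highest dose; inactive = the rest.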

For the compound `Cc1nnc(SCC2=C(C(=O)O)N3C(=O)C(NC(=O)Cn4nc(C(F)F)c(Cl)c4C)C3SC2)s1` (stereo unspecified), the EC50 is less than 0.06 µM.
Take `COc1cc(/C=C/c2ccc3cccc(O)c3n2)c(Br)cc1O`: the EC50 was 0.35 µM.
As for `O=C(Nc1cccc(Cl)c1)Nc1cc(S(=O)(=O)N2CCCCC2)ccc1Cl`, the EC50 was 7.75 µM.
As for `COc1cccc(COC(=O)c2sc3nc4n(c(=O)c3c2C)CCC4)c1OC`, the EC50 is 4.76 µM.
As for `CCn1cc(Cl)c(C(=O)N2N=C(c3ccc4ccccc4c3)CC2c2ccccc2O)n1` (stereo unspecified), the EC50 was 6.13 µM.
In the case of `Cc1ccc(SCc2cc(=O)[nH]c(SCC(=O)Nc3cc(Cl)ccc3Cl)n2)cc1` it was 6.79 µM; in that of `O=C(/C=C/c1ccccc1)NC(NC(=S)Nc1ccc(Cl)cc1)C(Cl)(Cl)Cl` (stereo unspecified), 4.16 µM.
Take `C[C@H]1[C@H](C)CC[C@]2(C(=O)O)CC[C@]3(C)C(=CC[C@@H]4[C@@]5(C)C[C@@H](O)[C@H](O)C(C)(C)[C@@H]5CC[C@]43C)[C@H]12`: the EC50 is 2.81 µM.
With `COC(=O)c1sc(-c2ccc(C(C)(C)C)cc2)cc1NC(=O)CSCC(=O)O` the figure was 3.91 µM; with `Cc1nc(C)c(C(=O)N/N=C/c2cc(Br)ccc2O)s1`, 2 µM.
For `CCOc1ccc(-n2cc(-c3ccccc3)c3c(=S)nc[nH]c32)cc1`, the EC50 is 5.73 µM.
As to `O=C(N/N=C/c1c[nH]c2ccccc12)c1cc(-c2ccc(-c3ccccc3)cc2)n[nH]1`, the EC50 is 2.89 µM.
Consider `CCN1CCN(c2cc3c(cc2F)c(=O)c(C(=O)O)cn3C2CC2)CC1`, for which the EC50 was 1.29 µM.
Take `CC(C)N=c1cc2n(-c3ccc(Cl)cc3)c3ccccc3nc-2cc1Nc1ccc(Cl)cc1`: the EC50 was 1.24 µM.
Turning to `CCNc1nc(Oc2c(Cl)cccc2Cl)cc(C(F)(F)F)n1`, the 50% effective concentration (EC50) is 6.58 µM.
In the case of `CCC(=O)NC(c1ccc(C)cc1)c1cc([N+](=O)[O-])c2cccnc2c1O` (stereo unspecified) it was 1.31 µM; in that of `C/C(=N\NC(=S)NCC(C)(C)C)c1cc(F)cc(F)c1O`, 2.65 µM.
In the case of `O=C1CC(N(CCc2ccccc2)C(=S)Nc2ccccc2)C(=O)N1c1ccc(Br)cc1` (stereo unspecified), the EC50 was 3.07 µM.
Turning to `O=C(c1ccc(O)cc1)c1ccc(C(=O)c2ccc(O)cc2)cc1`, the EC50 was 5.07 µM.
On to `Cc1ccc2c(c1)C(=O)CC1(CCC(C(C)(C)C)CC1)O2` (stereo unspecified), for which the 50% effective concentration (EC50) was 3.01 µM.
As to `c1ccc(-c2cc(-c3ccncc3)nc3ccc4ccccc4c23)cc1`, the EC50 was 2.21 µM.
With `c1ccc(-c2nc(NCc3ccco3)c3ccccc3n2)nc1` the figure was 4.7 µM; with `O=C(CP(=O)(c1ccccc1)c1ccccc1)N/N=C/c1cc(Br)cc(Br)c1O`, 0.804 µM; with `CC(C)N1CCc2c(sc(NC(=O)CCS(=O)(=O)c3ccccc3)c2C#N)C1`, > 15 µM (inactive).
Consider `CC/C(=N\NC(=S)Nc1cccc(C)c1)c1ccccc1`, for which the EC50 is 7.96 µM.
On to `Cc1sc2ncnc(N3CCC(C(=O)Nc4ccc(Cl)cc4Cl)CC3)c2c1C`, for which the half-maximal effective concentration (EC50) was 11.2 µM.
On to `S=C(NCCC(c1ccccc1)c1ccccc1)Nc1cccc(Cl)c1`, for which the EC50 is 5.82 µM.
`O=C(NNC(=S)NC(=O)c1cccs1)c1ccc(NC(=O)c2ccccc2)cc1`: the EC50 was 0.556 µM.
For `CCCC1=NN2C(=N)/C(=C\c3cc(C)n(-c4cc(C)cc(C)c4)c3C)C(=O)N=C2S1`, the EC50 was 1.83 µM.
For the compound `CC(C)=CCc1cc([C@@H]2COc3c(ccc4c3C=CC(C)(C)O4)C2)c(O)cc1O`, the EC50 is 2.94 µM.
On to `CC(C)(C)c1ccc(Cn2ccc(-c3ccc4c(c3)OCO4)n2)cc1`, for which the EC50 was 7.09 µM.
Regarding `Cc1[nH]n(-c2ccc(Br)cc2)c(=O)c1/C=N/NC(=O)c1ccccc1`, the EC50 was 0.428 µM.
Consider `Cc1ccc2nc(-c3ccc(N)cc3)sc2c1`, for which the EC50 was > 15 µM (inactive).
In the case of `CCCCCCCCCCC(=O)NNC(=O)c1c(O)c2ccccc2n(CC)c1=O` it was 0.185 µM.
In the case of `C/C(=N\NC(=O)c1cccc2ccccc12)c1ccccn1` it was 3.26 µM.
In the case of `N=C(N)c1ccc(/C=C/c2ccc(C(=N)N)cc2O)cc1`, the EC50 is 3.34 µM.
With `C/C(=N/NC(=O)c1cccs1)c1c(C)[nH]n(-c2nc3ccccc3s2)c1=O` the figure was 3.24 µM; with `CCOc1ccc(NC(=S)NNC(=S)Nc2cccc(C(F)(F)F)c2)cc1`, > 15 µM (inactive).
For the compound `FC(F)(F)Oc1ccc(NC(=S)Nc2ccc(OC(F)(F)F)cc2)cc1`, the EC50 was 6.49 µM.
For `O=C(Nc1ccccc1Cc1ccccc1)c1ccccc1NS(=O)(=O)c1ccc(Cl)s1`, the EC50 was 0.59 µM.
Regarding `O=C(CCCSc1ccccc1)Nc1nc(-c2ccccn2)cs1`, the EC50 is 6.17 µM.
As for `CN(C)S(=O)(=O)c1ccc(C(=O)Nc2nnc(-c3ccc4c(c3)CCCC4)o2)cc1`, the EC50 is 0.144 µM.
As for `FC(F)Sc1ccc(NC(=S)NC(c2ccccc2)c2ccccc2)cc1`, the EC50 is 2.28 µM.
As for `O=S(=O)(N[C@H]1C[C@@H](NS(=O)(=O)OCC(Cl)(Cl)Cl)C2CCCCC21)OCC(Cl)(Cl)Cl` (stereo partly specified), the EC50 was 1.86 µM.
In the case of `O=C(CSc1nc(-c2ccc(Cl)cc2)[nH]c(=O)n1)Nc1cccc(Cl)c1`, the EC50 is 2.35 µM.
As for `Cc1cnc(NC(=O)c2cc3c(C)nn(-c4ccccc4)c3s2)s1`, the EC50 was 0.831 µM.
As for `O=C(Nc1nnc(C2CC2)o1)c1ccc(S(=O)(=O)N2CCCc3ccccc32)cc1`, the EC50 was 1.34 µM.
With `Nc1ncc(Br)cc1S(=O)(=O)Nc1cc(C(F)(F)F)cc(C(F)(F)F)c1` the figure was 6.39 µM; with `CCOC(=O)C1=C(C)NC2=C(C(=O)c3ccccc32)C1c1ccc([N+](=O)[O-])o1` (stereo unspecified), 12.8 µM.
With `Cc1c(-c2cccc(Cl)c2)nc2ccccc2c1C(=O)OC/C(O)=C(\C#N)c1nc2ccccc2[nH]1`, the EC50 is 1.9 µM.
Regarding `O=C(Nc1cccnc1)Nc1cc(Cl)cc(Cl)c1`, the EC50 is 8.7 µM.
With `O=C(CCC(=O)Nc1ccc(Br)cc1)N/N=C/c1ccccc1O` the figure was 5.07 µM; with `Oc1ccccc1-c1nc2c3ccccc3c3ccccc3c2[nH]1`, 2.43 µM.
In the case of `Cn1c(=O)[nH]c(=O)c2c1nc(N1CCC(Cc3ccccc3)CC1)n2Cc1ccccc1` it was 3.91 µM; in that of `CCOC(=O)c1c(C)oc2c1c(C(c1ccccc1)N1CCOCC1)c(O)c1ccccc12` (stereo unspecified), 2.66 µM; in that of `COc1ccc(C(CNC(=O)c2cccc(S(=O)(=O)Nc3ccccc3Cl)c2)N2CCOCC2)cc1` (stereo unspecified), 11.1 µM.
With `COc1cccc(/C=N/n2c(N)nc3ccccc32)c1OC` the figure was 5.93 µM; with `CCn1c(O)c(/C=N/N=C/c2ccccc2)c2ccc(C3=NNC(=O)CC3)cc21`, 4.3 µM.
Regarding `Fc1ccc(Cn2cccc2C2=NC(c3ccccc3)CO2)cc1` (stereo unspecified), the EC50 was 7.34 µM.
For `CCn1nc(C)cc1-c1nnc(Sc2ncc([N+](=O)[O-])s2)n1C`, the concentration for a half-maximal effect (EC50) was 6.51 µM.
For `CCCCn1c(=O)c(C(=O)Nc2ccccn2)c(O)c2ccccc21`, the EC50 was 5.09 µM.
On to `COc1cc(OC)cc(C(=O)Nc2nc3ccccc3[nH]2)c1`, for which the EC50 was 12.8 µM.
Take `CC(C)C[C@H](NC(=O)c1nc[nH]c1C(=O)N1CCc2ccccc2C1)C(=O)OCc1ccccc1`: the EC50 was 9.87 µM.
`Cc1ccc2nc(N/C(=N/S(=O)(=O)c3ccc(F)cc3)c3ccccc3)sc2c1`: the EC50 is 6.17 µM.
As to `O=C(N/N=C/c1c(O)n(Cc2ccccc2)c(=O)[nH]c1=O)c1ccccc1`, the EC50 was 8.62 µM.
In the case of `C=CCn1c(=O)c(C(=O)NCc2ccccc2)c(O)c2ccccc21`, the concentration for a half-maximal effect (EC50) is 3.32 µM.
